Laboratory results as given in US9056105B2, “Method for treatment of bone diseases and fractures” (INDIANA UNIVERSITY RESEARCH AND TECHNOLOGY CORPORATION, priority 2008, dated 2015).

Tests used:
rat tibia = assay: Rat tibia healing of surgical wounds, micro CT; type: in vivo; conditions: for reduction in wound size vs control: medial cortex
From the text: Rat tibia—healing of surgical wounds. Twenty female SD rats (˜8 weeks, body weight˜180 g) received a surgical hole with ˜2.0 mm in diameter in the left and right tibiae (Zhang P., et al., Knee loading accelerates bone healing in mice, J. Bone Miner. Res. 22:1979-1987 (2007)). The hole was located on the medial surface ˜15 mm distant apart from the proximal end of the tibia (Chiba S., et al., Molecular analysis of defect healing in rat diaphyseal bone, J. Vet. Med. Sci. 63:603-606 (2001)). During the first 5 days, 100 μl of salubrinal solution at dosage of 0.025 mg/kg was injected into the left limb and a PBS solution (vehicle control) in the right limb (Wang J W, et al., Locally applied simvastatin promotes fracture healing in ovariectomized rat, Osteoporosis Int. 18:1641-1650 (2007)). Injection was subcutaneous targeted to the wound site. Rats were sacrificed on days 10 or 20 after surgery, and the axial and transverse length of the holes as well as cortical thickness (1.5 mm proximal and distal to the center of the hole) were determined with micro CT imaging (μCT-20, Scanco Medical AG) (FIG. 16).

rat brain = conditions: intra-cerebroventricular or intra-peritoneal administration; cited from earlier work
[1] = tested on: ATF4, ATF3, CHOP, Runx2, Osterix, Rank 1, Osteocalcin mRNA; assay: mRNA expression levels by real-time PCR in MC3T3 cells; type: cell-based, mouse
Experimental: Responses to Administration of Thapsigargin—Upregulation of transcription factors linked to bone formation as well as PERK: The effects of 10 nM thapsigargin on mRNA expression levels of ISR-linked genes (ATF4, ATF3, and CHOP) as well as genes involved in bone remodeling (Runx2, Osterix, and Rank 1), were examined (FIG. 7). […] Out of 4 transcription factors (ATF4, ATF3, Runx2, and Osterix), the level of ATF4 mRNA was elevated 2-4 fold throughout the treatments. […] The mRNA level of type 1 collagen was elevated 5 h and 10 h for T1h (1 h exposure at 10 nM).
(§1) Responses to Administration of Salubrinal—In vitro responses to salubrinal: In order to evaluate the effects of salubrinal, MC3T3 E1 osteoblast-like cells and MLO-A5 osteocyte cells (Barragan-Adjemian, C., et al., “Mechanism by which MLO-A5 late osteoblasts/early osteocytes mineralize in culture: similarities with mineralization of lamellar bone,” Calcif. Tissue Int. 79:340-353 (2006)) were incubated with salubrinal at 100 nM-50 μM for 1-24 h. The mRNA levels of the selected genes, TF4, ATF3, Osteocalcin (OCN), and CHOP, were determined by real-time PCR. […] In MC3T3 cells, for instance, the Osteocalcin mRNA level, which is regulated by ATF4 and Runx2 (Xiao et al. 2005), was elevated 11.8±0.2 fold at 10 μM salubrinal in 24 h.

rat femur = assay: Rat femur healing of surgical wounds, micro CT; type: in vivo; conditions: for increase in cortical thickness vs control: anterior hole; for reduction in wound size vs control: anterior holes; for increase in cortical thickness: posterior hole
Experimental: Rat femur—healing of surgical wounds. A surgical hole with ˜2.0 mm in diameter was generated in the left and right femurs of twenty female SD rats (˜8 weeks, body weight ˜180 g). The holes were drilled through the femur from the anterior surface to the opposite cortex (posterior surface) in the middle of the femur. During the first 5 days, 100 μl of salubrinal solution at dosage of 0.025 mg/kg was injected subcutaneously to the left limb and a PBS solution (vehicle control) in the right limb. The injection site was closed to the anterior surgical hole. Rats were sacrificed on days 10 or 20 after surgery, and the axial and transverse hole sizes as well as cortical thickness (1.5 mm proximal and distal to the center of the hole) were determined with micro CT. […] Regarding the anterior holes, the size of the wounds 10 days after surgery was smaller in the salubrinal treated group by 10.8% (1.905±0.018 mm in control and 1.700±0.021 mm in salubrinal; p<0.001). The size in 20 day samples was further decreased by 18.0% (1.812±0.017 mm in control and 1.486±0.026 mm in salubrinal; p<0.001). […] Note that the reduction in the wound size on day 20 was more significant than those on day 10 in both the anterior and posterior holes (both p<0.001) (FIG. 20B).

mouse tibia = assay: Mouse tibia bone formation, ankle loading plus local salubrinal; type: in vivo; conditions: 0.025 mg/kg (100 μM) salubrinal plus ankle loading, 5 days
Experimental: Mouse tibia-bone formation: Twenty C57/BL/6 Female Mice (˜8 weeks, body weight˜18 g) were employed to examine the combined effects of ankle loading and local administration of salubrinal to the tibia (Zhang P, et al., Salubrinal stimulates anabolic responses in mouse femora, 55th Ann Meeting ORS (2009)). Local administration was targeted into a bone marrow cavity from the proximal tibia. A total volume of 20 μl PBS was injected to the left hindlimb with or without 0.025 mg/kg (100 μM) salubrinal (Calbiochem) using a micro-syringe with a 0.5-inch #26-gauge needle (Worsham D N, et al., In vivo gene transfer into adult stem cells in unconditioned mice by in situ delivery of a lentiviral vector, Mol. Ther. 14:514-24 (2006); Zhu Y, et al., eIF-2α protects brainstem motoneurons in a murine model of sleep apnea, J. Neurosci. 28:2168-78 (2008)). In examination of the combined effects of mechanical loading and salubrinal administration, ankle loading was given for 5 consecutive days after administration of salubrinal on each day. The mouse was placed in an anesthetic induction chamber to cause sedation and then mask-anesthetized using 1.5% isoflurane. With a custom-made piezoelectric mechanical loader, loads were applied to the left ankle for 5 min/day in the lateral-medial direction. The loading frequency was 5 Hz, and the peak-to-peak force was 0.5 N (FIG. 15). […]

MLO-A5 osteocyte cells = assay: mRNA levels by real-time PCR in MLO-A5 osteocyte cells; type: cell-based; conditions: 100 nM-50 μM, 1-24 h
Experimental: as §1

femora of C57BL/6 mice = assay: Intramedullary injection into mouse femur, BMD and BMC; type: in vivo
Experimental: Responses to Administration of Salubrinal—In Vivo Responses to salubrinal: In order to evaluate the effects of salubrinal in vivo, salubrinal was injected into an intramedullary cavity of the left femora of C57BL/6 mice and alterations in bone mineral density (BMD) and bone mineral content (BMC) were determined. There were 9 salubrinal treated mice as well as 9 placebo mice (injection of PBS). All mice received 4 injections of either salubrinal or PBS in the left femur, while the right femur was used as contralateral control. In four consecutive injections with a 0.5-inch #26-gauge needle and a Hamilton micro-syringe, the laterial side was used on the 1st and 3rd injections and the medial side on the 2nd and 4th injections. An injection volume was 20 μl for salubrinal or PBS, and the salubrinal concentration was 50 μM. […] At the time of harvest (2 wks after the 1st injection), an increase in body weight in Salubrinal group (0.80±0.13 g) was higher than that in Placebo group (0.28±0.15 g; p<0.05). Harvested bone samples were analyzed with PIXImus (version 1.4, GE Medical System Lunar) for determination of BMD and BMC.

rat β-cells = conditions: 5-75 μM, dosage dependent; cited from earlier work
brainstem motoneurons = conditions: hypoxia and reoxygenation events; cited from earlier work
[2] = tested on: eIF2α-p and ATF4 proteins; assay: Western blot of eIF2α-p and ATF4 proteins in MC3T3 E1 osteoblast-like cells; type: cell-based, mouse
Experimental: (§2) At higher doses of 10 and 100 nM, the levels of eIF2α-p and ATF4 proteins were elevated (FIG. 5A). Thapsigarin is known to induce apoptosis when administered above a threshold concentration.
MS3T3 osteoblast-like cells were used to evaluate the level of eIF2α-p (phosphorylated form of eukaryotic initiation factor 2—subunit α) in response to salubrinal.

MC3T3 cells [3] = type: cell-based, mouse
MC3T3 cells [4] = assay: Microarray analysis (GSEA, IPA) of thapsigargin-induced mild ER stress; type: cell-based, mouse; conditions: 1 h exposure at 10 nM
Experimental: Responses to Administration of Thapsigargin—Linkage to hypoxia through microarray analysis: In response to thapsigargin-induced mild ER stress (1 h exposure at 10 nM), microarray experiments were conducted. First, Gene Set Enrichment Analysis (GSEA; Broad Institute) was used to identify a group of genes that shared common biological functions (Hamamura, K., et al., “Microarray analysis of thapsigargin-induced stress to the endoplasmic reticulum of mouse osteoblasts,” J. Bone Miner. Metab. 26:231-240 (2008)). For each group of gene sets, GSEA calculates an enrichment score and evaluates statistical significance in the enrichment score. […] The highest normalized enrichment score was given to the gene set, HYPOXIA_UP. All genes present in the array were reordered based on a ranked list-metric value (a mean expression ratio between the thapsigargin-treated and untreated samples), and the best enrichment score of “−0.66” was assigned. Note that if the expression ratio is random among the genes in HYPOXIA_UP, the expected enrichment score is ±0.23. The enrichment score, ranked […] and P (enrichment score) supported the conclusions drawn from the software program output. […]

[5] = tested on: CHOP, pro-caspase 3, cleaved caspase 3; assay: Protein levels of CHOP, pro-caspase 3 and cleaved caspase 3 (induction of apoptosis); type: cell-based, mouse; conditions: 10 nM
Experimental: as §2

[6] = tested on: PERK, PKR, p-38 MAPK, ERK1/2; assay: Phosphorylation of eIF2α kinases and MAP kinases; type: cell-based, mouse; conditions: 10 nM, 1 h exposure
Experimental: In response to T1h (1 h exposure at 10 nM), the level of phosphorylation of two eIF2α kinases (PERK and PKR), and two MAP kinases (p-38 MAPK and ERK1/2) was examined (FIG. 8).

[7] = 10 days after surgery, 0.025 mg/kg

With O=C(/C=C/c1ccccc1)NC(NC(=S)Nc1cccc2cccnc12)C(Cl)(Cl)Cl (stereo not drawn) [salubrinal] the “increase in cortical thickness vs control” value (“increase … vs control” below) (rat tibia; day 10) was 11.6%, the “increase … vs control” value (rat tibia; day 20) was 20.3% and the “reduction in wound size vs control” value (rat tibia; [7]) was 12.3%. The “reduction in wound size vs control” value (rat tibia; 20 days) was 19.1%, the “excitotoxic neuronal death in vivo” value (rat brain) was “decreased excitotoxic neuronal death” and the “mRNA levels of ATF4, ATF3, Osteocalcin and CHOP” value ([1]; MC3T3 cells, 100 nM-50 μM, 1-24 h) was “upregulated”. The “increase … vs control” value (rat femur; day 10) was 11.0%, the “increase … vs control” value (rat femur; day 20) was 25.7% and the “reduction in wound size vs control” value (rat femur; [7]) was 10.8%. The “reduction in wound size vs control” value (rat femur; 20 days) was 18.0%, the “increase in cortical thickness” value (rat femur; postoperative 10 days) was 13.8% and the “increase in cortical thickness” value (rat femur; postoperative 20 days) was 21.3%. For the same compound, the “tibia BMC” value (mouse tibia) was 0.0154 ± 0.0004 g, the “tibia BMD” value (mouse tibia) was 0.0443±0.0011 g/cm^2 and the “mRNA levels of ATF4, ATF3, Osteocalcin and CHOP” value (MLO-A5 osteocyte cells) was “did not show any significant alterations”. The “BMD of injected femur” value (femora of C57BL/6 mice; 20 μl 50 μM injection, 4 injections, mean±s.e.m.) was 0.0456±0.0011 g/cm^2, the “BMD compared to contralateral control” value (femora of C57BL/6 mice; p=0.02) was “increased” and the “BMC compared to contralateral control” value (femora of C57BL/6 mice; p=0.09) was “showed a trend to elevate”. The apoptosis (rat β-cells) was “induced apoptosis” and the motoneuronal injury (brainstem motoneurons) was “suppressed motoneuronal injury”.
With C/C=C(/C)C(=O)O[C@H]1C(C)=C2[C@H]([C@@H]1OC(=O)CCCCCCC)[C@@](C)(OC(C)=O)C[C@H](OC(=O)CCC)[C@@]1(O)[C@H]2OC(=O)[C@@]1(C)O [thapsigargin] the “levels of eIF2α-p and ATF4 proteins” value ([2]; 10 and 100 nM) was “elevated”, the “eIF2α-p and ATF4 protein expression” value ([2]; dosages below 0.1 nM) was “no detectable upregulation” and the “increase in Runx2 mRNA” value ([1]; 10 nM) was “started at 3 h and peaked at 5 h”. The “mRNA level of CHOP” value ([1]; 10 nM) was 10-35 fold, the “mRNA level of type 1 collagen” value ([1]; 10 nM, 1 h exposure, 5 h and 10 h) was “elevated” and the “Rank 1 mRNA” value ([1]; 10 nM, 3 h for T2h and 10 h for T3h) was “significantly up”. The “level of Osteocalcin mRNA” value ([1]; 1-100 nM for 1-24 h) was “did not increase”, the “numbers of live and dead cells” value (MC3T3 cells [3]; 10 nM, 1 h incubation) was “does not alter” and the “cell number or mortality vs control cells” value (MC3T3 cells [3]; 1 h exposure at 10 nM) was “no significant difference”. For the same compound, the “core enrichment genes in HYPOXIA_UP vs control” value (MC3T3 cells [4]) was “significantly upregulated”, the “level of active (cleaved) caspase 3” value [5] was “increased after 24 h” and the “level of CHOP protein” value ([5]; higher for 5, 10 and 24 h) was “started to increase after 3 h”. For the same compound, the “level of p-ERK1/2” value [6] was “not altered”, the “level of p-PERK” value [6] was “elevated” and the “level of p-PKR” value [6] was “not altered”. For the same compound, the “level of p-p38 MAPK” value [6] was “elevated”.
